Source: patent US6720423B2, “Dihydrobenzofuran and dihydrobenzothiophene 2,4-pentadienoic acid derivatives having selective activity for retinoid X (RXR) receptors” (Allergan, Inc., priority 2002, dated 2004)

Columns and labels:
RARγ = target: T1, RARγ (Homo sapiens, UniProt P13631); assay: ligand binding assay, RARγ; conditions: second entry of cell, read-out: RAR Bind. Ki (nM) γ
T1 sequence (P13631 1-454): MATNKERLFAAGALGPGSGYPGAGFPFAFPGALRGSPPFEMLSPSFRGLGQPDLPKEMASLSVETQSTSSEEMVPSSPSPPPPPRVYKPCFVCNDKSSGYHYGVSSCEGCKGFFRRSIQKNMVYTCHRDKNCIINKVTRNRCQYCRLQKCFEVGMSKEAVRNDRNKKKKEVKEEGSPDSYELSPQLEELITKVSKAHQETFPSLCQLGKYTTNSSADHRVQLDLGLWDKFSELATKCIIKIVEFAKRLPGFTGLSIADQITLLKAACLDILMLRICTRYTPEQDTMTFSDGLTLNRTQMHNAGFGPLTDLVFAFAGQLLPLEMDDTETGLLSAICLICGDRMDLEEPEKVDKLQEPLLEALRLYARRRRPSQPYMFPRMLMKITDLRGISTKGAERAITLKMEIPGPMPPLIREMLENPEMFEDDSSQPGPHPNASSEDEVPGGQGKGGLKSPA
Source text: (§1) A holoreceptor transactivation assay and a ligand binding assay which measure the antagonist/agonist like activity of the compounds of the invention, or their ability to bind to the several retinoid receptor subtypes, respectively, are described in published PCT Application No. WO WO93/11755 (particularly on pages 30-33 and 37-41) published on Jun. 24, 1993, the specification of which is also incorporated herein by reference. A detailed experimental procedure for holoreceptor transactivations has been described by Heyman et al. Cell 68, 397-406, (1992); Allegretto et al. J. Biol. Chem. 268, 26625-26633, and Mangelsdorf et al. The Retinoids: Biology, Chemistry and Medicine, pp 319-349, Raven Press Ltd., New York, which are expressly incorporated herein by reference. The results obtained in this assay are expressed in EC50 numbers, as they are also in the chimeric receptor transactivation assay. The results of ligand binding assay are expressed in Kd numbers. (See Cheng et al. Biochemical Pharmacology Vol. 22 pp 3099-3108, expressly incorporated herein by reference.)

RXRγ = target: T2, RXRγ (UniProt P28705); assay: receptor transactivation assay, RXRγ; type: cell-based; parameters: RXR Trans; other: RXRγ; first entry of cell; conditions: for EC50: first entry of cell, read-out: RXR Trans. EC50 (nM) γ; for RXR Trans. γ, number in parentheses after EC50: parenthesised number, not defined in the patent
T2 sequence (P28705 1-463): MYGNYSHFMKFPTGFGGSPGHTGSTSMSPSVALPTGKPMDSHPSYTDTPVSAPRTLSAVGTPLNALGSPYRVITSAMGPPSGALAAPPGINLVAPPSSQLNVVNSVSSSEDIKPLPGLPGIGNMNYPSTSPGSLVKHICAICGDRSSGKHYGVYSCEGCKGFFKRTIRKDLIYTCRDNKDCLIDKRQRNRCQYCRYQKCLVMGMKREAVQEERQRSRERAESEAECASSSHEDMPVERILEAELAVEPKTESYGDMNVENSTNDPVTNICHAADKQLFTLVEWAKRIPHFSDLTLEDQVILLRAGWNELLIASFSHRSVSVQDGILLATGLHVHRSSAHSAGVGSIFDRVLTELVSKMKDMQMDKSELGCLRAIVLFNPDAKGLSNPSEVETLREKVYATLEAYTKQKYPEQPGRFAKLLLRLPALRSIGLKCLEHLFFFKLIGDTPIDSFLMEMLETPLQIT
Source text: as §1

RARα = target: T3, RARα (Homo sapiens, UniProt P10276); assay: ligand binding assay, RARα; conditions: second entry of cell, read-out: RAR Bind. Ki (nM) α
T3 sequence (P10276 1-462): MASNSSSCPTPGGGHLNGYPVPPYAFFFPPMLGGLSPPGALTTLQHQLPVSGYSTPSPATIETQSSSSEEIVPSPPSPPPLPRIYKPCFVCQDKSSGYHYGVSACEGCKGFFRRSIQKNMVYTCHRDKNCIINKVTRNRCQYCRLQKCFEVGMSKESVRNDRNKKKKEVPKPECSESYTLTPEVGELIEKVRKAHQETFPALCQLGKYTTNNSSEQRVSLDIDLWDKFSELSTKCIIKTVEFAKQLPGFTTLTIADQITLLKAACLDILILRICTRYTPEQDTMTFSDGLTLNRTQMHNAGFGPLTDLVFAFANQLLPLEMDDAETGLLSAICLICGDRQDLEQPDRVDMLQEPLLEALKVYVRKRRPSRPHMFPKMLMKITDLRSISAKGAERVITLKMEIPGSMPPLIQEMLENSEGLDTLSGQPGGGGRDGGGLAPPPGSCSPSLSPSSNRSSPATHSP
Source text: as §1

Compound	Ki (RARγ)	EC50 (RXRγ)	RXR Trans. γ, number in parentheses after EC50 (RXRγ)	Ki (RARα)
CC(/C=C/[C@@H]1C[C@]1(C)c1ccc2c(c1)C(C)(C)CO2)=C\C(=O)O [Compound 2, (6S,7S)-7-[5-(3,3-Dimethyl-2,3-dihydro-benzofuranyl)]-6.7-methano-3-methyl-octa-2E,4E-dienoic Acid]	> 10000 nM	2.7 nM	119	> 10000 nM
CC(/C=C/[C@@H]1C[C@]1(C)c1cc(C(C)C)c2c(c1)C(C)(C)CO2)=C\C(=O)O [Compound 8, (6S,7S)-7-[5-(3,3-Dimethyl-7-iso-propyl-2,3-dihydro-benzofuranyl)]-6,7-methano-3-methyl-octa-2E,4E-dienoic Acid]	7510 nM	0.23 nM	108	42000 nM
CC(/C=C/[C@@H]1C[C@]1(C)c1cc(C(C)(C)C)c2c(c1)C(C)(C)CO2)=C\C(=O)O [Compound 10, (6S,7S)-7-[5-(3,3-Dimethyl-7-t-butyl-2,3-dihydro-benzofuranyl)]-6,7-methano-3-methyl-octa-2E,4E-dienoic acid]	13000 nM	0.78 nM	95	11000 nM
CC(/C=C/[C@@H]1C[C@]1(C)c1cc(CC2CCCCC2)c2c(c1)C(C)(C)CO2)=C\C(=O)O [Compound 16, (6S,7S)-7-[5-(7-Cyclohexylmethyl-3,3-dimethyl-2,3-dihydro-benzofuranyl)]-6,7-methano-3-methyl-octa-2E,4E-dienoic Acid]	12000 nM	0.29 nM	83	8800 nM
CCCCCCc1cc([C@@]2(C)C[C@H]2/C=C/C(C)=C/C(=O)O)cc2c1OCC2(C)C [Compound 18, (6S,7S)-7-[5-(3,3-Dimethyl-7-hexyl-2,3-dihydro-benzofuranyl)]-6,7-methano-3-methyl-octa-2E,4E-dienoic acid]	9260 nM	0.36 nM	99	12000 nM
CCCCCCCc1ccccc1-c1cc([C@@]2(C)C[C@H]2/C=C/C(C)=C/C(=O)O)cc2c1OCC2(C)C [Compound 28]	9540 nM	850 nM	88	2620 nM
CC(/C=C/[C@@H]1C[C@]1(C)c1cc(-c2ccc(C(C)(C)C)cc2)c2c(c1)C(C)(C)CO2)=C\C(=O)O [Compound 30, 5-{(1S, 2S)-2-[7-(4-tert-Butyl-phenyl)-3,3-dimethyl-2,3-dihydro-benzofuran-5-]-2-methyl-cyclopropyl}-3-methyl-pent-2E,4E-dienoic Acid]	> 10000 nM	> 1000 nM	80	> 10000 nM
COc1ccc(-c2cc([C@@]3(C)C[C@H]3/C=C/C(C)=C/C(=O)O)cc3c2OCC3(C)C)cc1 [Compound 32, (E)-3-((E)-2-{(1S,2S)-2-[7-(4-Methoxy-phenyl)-3,3-dimethyl-2,3-dihydro-benzofuran-5-yl]-2-methyl-cyclopropyl}-vinyl)-but-2-enoic acid]	> 10000 nM	561 nM	106	29000 nM
CC(/C=C/[C@@H]1C[C@@H]1c1ccc2c(c1)C(C)(C)CO2)=C\C(=O)O [Compound 36, (E)-3-{(E)-2-F[(1S,2S)-2-(3,3-Dimethyl-2,3-dihydro-benzofuran-5-yl)-cyclopropyl]-vinyl}-but-2-enoic acid]	> 10000 nM	743 nM	109	> 10000 nM

Now from value to compound:

Ki (RARγ)	EC50 (RXRγ)	RXR Trans. γ, number in parentheses after EC50 (RXRγ)	Ki (RARα)	Compound
> 10000 nM	4.4 nM	108	> 10000 nM	CC(/C=C/[C@@H]1C[C@]1(C)c1cc(C)c2c(c1)C(C)(C)CO2)=C\C(=O)O [Compound 4, (6S,7S)-7-[5-(3,3,7-Trimethyl-2,3-dihydro-benzofuranyl)]-6,7-methano-3-methyl-octa-2E,4E-dienoic acid]
13000 nM	0.56 nM	85	> 30000 nM	CCc1cc([C@@]2(C)C[C@H]2/C=C/C(C)=C/C(=O)O)cc2c1OCC2(C)C [Compound 6]
8910 nM	0.42 nM	101	18000 nM	CC(/C=C/[C@@H]1C[C@]1(C)c1cc(CC(C)(C)C)c2c(c1)C(C)(C)CO2)=C\C(=O)O [Compound 12, 5-{(1S,2S) 2-[7-(2,2-Dimethyl-propyl)-3,3-dimethyl-2,3-dihydro-benzofuran-5-yl]-2-methyl-cyclopropyl}-3-methyl-penta-2E,4E-dienoic Acid]
6650 nM	0.0973 nM	105	8720 nM	CC(/C=C/[C@@H]1C[C@]1(C)c1cc(Cc2ccccc2)c2c(c1)C(C)(C)CO2)=C\C(=O)O [Compound 14, (6S,7S)-7-[5-(7-Benzyl-3,3-dimethyl-2,3-dihydro-benzofuranyl)]-6,7-methano-3-methyl-octa-2E,4E-dienoic Acid]
> 10000 nM	3.4 nM	111	> 10000 nM	CC(/C=C/[C@@H]1C[C@]1(C)c1cc(Br)c2c(c1)C(C)(C)CO2)=C\C(=O)O [Compound 20, (6S,7S)-7-[5-(7-Bromo-3,3-dimethyl-2,3-dihydro-benzofuranyl)]-6,7-methano-3-methyl-octa-2E,4E-dienoic Acid]
> 5260 nM	12.8 nM	110	> 10000 nM	CC(/C=C/[C@@H]1C[C@]1(C)c1cc(-c2ccccc2)c2c(c1)C(C)(C)CO2)=C\C(=O)O [Compound 22, 6S,7S)-7-[5-(3,3-Dimethyl-7-phenyl-2,3-dihydro-benzofuranyl)1-6,7-methano-3-methyl-octa-2E,4E-dienoic acid]
> 10000 nM	0.86 nM	105	> 10000 nM	CC(/C=C/[C@@H]1C[C@]1(C)c1cc(-c2c(C)cccc2C)c2c(c1)C(C)(C)CO2)=C\C(=O)O [Compound 24, 5-{(1 S 2S)-2-[7-(2,6-Dimethyl-phenyl)-3,3-dimethyl-2,3-dihydro-benzofuran-5-yl]-2-methyl-cyclopropyl}-3-methyl-penta-2E,4E-dienoic acid]
> 10000 nM	0.32 nM	107	> 10000 nM	CC(/C=C/[C@@H]1C[C@]1(C)c1cc(-c2ccccc2C)c2c(c1)C(C)(C)CO2)=C\C(=O)O [Compound 26, 5-[(1S,2S)-2-(3,3-Dimethyl-7-o-tolyl-2,3-dihydro-benzofuran-5-yl)-2-methyl-cyclopropyl]-3-methyl-penta-2E,4E-dienoic acid]
25000 nM	0.56 nM	109	23000 nM	CC(/C=C/[C@@H]1C[C@]1(C)c1cc(-c2ccc(F)cc2)c2c(c1)C(C)(C)CO2)=C\C(=O)O [Compound 34, (E)-3-((E)-2-{(1S,2S)-2-[7-(4-Fluoro-phenyl)-3,3-dimethyl-2,3-dihydro-benzofuran-5-yl]-2-methyl-cyclopropyl}-vinyl)-but-2-enoic acid]
